Values quoted from earlier work as cited in patent US20150202168A1, “ORAL FILM FORMULATIONS COMPRISING DAPOXETINE AND TADALAFIL” (Sanovel Ilac Sanayi Ve Ticaret Anonim Sirketi, priority 2012, published 2015).

Columns and labels:
[1] = following oral administration
[2] = Int J Impot Res. 2006; 18(1):104-10
human body = details: studies conducted

In the case of `CN1CC(=O)N2[C@H](c3ccc4c(c3)OCO4)c3[nH]c4ccccc4c3C[C@@H]2C1=O` [Tadalafil, (6R-trans)-6-(1,3-benzodioxol-5-yl)-2,3,6,7,12,12a-hexahydro-2-methyl-pyrazino[1′,2′:1,6]pyrido[3,4-b]indole-1,4-dione], the solubility in water is listed as “poorly soluble”.
In the case of `CN(C)[C@@H](CCOc1cccc2ccccc12)c1ccccc1` [dapoxetine], the “binding to the plasma proteins” value [1] is listed as “almost completely” and the “interactions with PDE5 inhibitors” value [2] is listed as “does not have pharmaceutical interactions”.
In the case of Mogroside, the “toxicity to human body” value (human body) is listed as “not toxic”.
